pIC50: −log10 of the molar value. Read-outs that look alike come from different tables or passages of the source. Non-standard residues stand in square brackets, D forms with d. Residues, ends and D or L forms follow the SMILES beside them. Cit = NC(=O)NCCC[C@H](N)C(=O)O

This assay deals with T1, DR0401 protein (Homo sapiens, UniProt P01903+P01911, A100K/A169T/F76Y/I96L/K127E/L162R/M171V/N62H/P40V/Q125Y/R42H/S133A/S149N/S66Y/V115G/V209L/W38E).
T1 construct: made in house; host or cells: insect cell cultures
The assay can be described thus: DR0401 peptide binding competition assay.

The mark [1] stands for this setting: Supplementary Table 2, competition with biotin-HA306-318 0.02 μM, read-out: IC50 (Binding of Predicted Glucokinase Peptides to DR04:01).
[2] abbreviates: Table 1, competition with biotinylated HA306-318 reference peptide at 0.02 μM in DR0401-coated wells, europium-streptavidin time resolved fluorescence, concentration that displaces half of the reference peptide, read-out: IC50 (binding to DR0401).
[3] abbreviates: Supplementary Table 3, competition with biotin-HA306-318 0.02 μM, representative values from two replicate experiments, read-out: IC50 (Effect of Citrulline or Arg Substitution).

As usually defined, the pIC50 is the IC50 on a negative log10 scale, so that one unit is a factor of ten. For `CSCC[C@H](NC(=O)[C@H](CCCCN)NC(=O)[C@@H](NC(=O)[C@H](CO)NC(=O)[C@H](C)NC(=O)[C@H](CCC(=O)O)NC(=O)[C@H](CCC(=O)O)NC(=O)[C@H](Cc1c[nH]cn1)NC(=O)[C@@H](NC(=O)[C@H](CCC(=O)O)NC(=O)[C@H](CC(C)C)NC(=O)[C@H](CCCNC(N)=O)NC(=O)[C@H](CC(C)C)NC(=O)CN)[C@@H](C)O)C(C)C)C(=O)N[C@@H](CC(C)C)C(=O)O` [GK 44-58] (H-GL[Cit]LETHEEASVKML-OH; N-terminus and C-terminus assumed), the pIC50 under setting [1] is < 4.30.

Take `CSCC[C@H](NC(=O)[C@H](CCCCN)NC(=O)[C@@H](NC(=O)[C@@H](N)CO)C(C)C)C(=O)N[C@@H](CC(C)C)C(=O)N1CCC[C@H]1C(=O)N[C@H](C(=O)N[C@@H](Cc1ccc(O)cc1)C(=O)N[C@H](C(=O)N[C@@H](CCCNC(N)=O)C(=O)N[C@@H](CO)C(=O)N[C@H](C(=O)N1CCC[C@H]1C(=O)N[C@@H](CCC(=O)O)C(=O)NCC(=O)O)[C@@H](C)O)C(C)C)[C@@H](C)O` [GK 54-68] (H-SVKMLPTYV[Cit]STPEG-OH; N-terminus and C-terminus assumed): under setting [1], the pIC50 is < 4.30.

For `CC(C)C[C@H](N)C(=O)N1CCC[C@H]1C(=O)N[C@H](C(=O)N[C@@H](Cc1ccc(O)cc1)C(=O)N[C@H](C(=O)N[C@@H](CCCNC(N)=O)C(=O)N[C@@H](CO)C(=O)N[C@H](C(=O)N1CCC[C@H]1C(=O)N[C@@H](CCC(=O)O)C(=O)NCC(=O)N[C@@H](CO)C(=O)N[C@@H](CCC(=O)O)C(=O)N[C@H](C(=O)NCC(=O)O)C(C)C)[C@@H](C)O)C(C)C)[C@@H](C)O` [GK 58-72] (H-LPTYV[Cit]STPEGSEVG-OH), under setting [1], the pIC50 was 4.51.

`CSCC[C@H](NC(=O)[C@@H](NC(=O)[C@H](CCCNC(=N)N)NC(=O)[C@H](Cc1ccccc1)NC(=O)[C@H](CC(N)=O)NC(=O)[C@@H](NC(=O)CN)[C@@H](C)O)C(C)C)C(=O)N[C@@H](CC(C)C)C(=O)N[C@H](C(=O)N[C@@H](CCCCN)C(=O)N[C@H](C(=O)NCC(=O)N[C@@H](CCC(=O)O)C(=O)NCC(=O)N[C@@H](CCC(=O)O)C(=O)O)C(C)C)C(C)C` [GK 81-95] (H-GTNFRVMLVKVGEGE-OH): under setting [1], the pIC50 was 4.82.

Consider `CC[C@H](C)[C@H](NC(=O)[C@H](CS)NC(=O)[C@H](CCC(=O)O)NC(=O)[C@H](CO)NC(=O)[C@@H](NC(=O)[C@H](Cc1ccc(O)cc1)NC(=O)[C@H](CC(=O)O)NC(=O)[C@H](Cc1ccccc1)NC(=O)[C@H](CC(C)C)NC(=O)[C@H](CCSC)NC(=O)[C@@H](N)CCC(=O)O)[C@@H](C)CC)C(=O)N[C@@H](CO)C(=O)N[C@@H](CC(=O)O)C(=O)N[C@@H](Cc1ccccc1)C(=O)N[C@@H](CC(C)C)C(=O)O` [GK 120-134] (H-EMLFDYISECISDFL-OH), for which the pIC50 under setting [1] was 4.40.

As for `CSCC[C@H](NC(=O)[C@H](C)NC(=O)[C@@H](NC(=O)[C@@H](NC(=O)[C@H](CC(=O)O)NC(=O)[C@H](CCSC)NC(=O)[C@H](CCC(=O)O)NC(=O)[C@H](Cc1ccccc1)NC(=O)[C@H](CC(=O)O)NC(=O)CNC(=O)[C@@H](N)CCCNC(=N)N)C(C)C)C(C)C)C(=O)N[C@H](C(=O)N[C@@H](CC(N)=O)C(=O)N[C@@H](CC(=O)O)C(=O)N[C@H](C(=O)O)[C@@H](C)O)C(C)C` [GK 192] (H-RGDFEMDVVAMVNDT-OH), the pIC50 under setting [2] was 6.46.

On to `CC[C@H](C)[C@H](NC(=O)[C@H](CCSC)NC(=O)[C@@H](NC(=O)[C@H](C)NC(=O)[C@@H](NC(=O)[C@@H](NC(=O)[C@H](CC(=O)O)NC(=O)[C@H](CC(N)=O)NC(=O)[C@@H](NC(=O)[C@H](CCSC)NC(=O)[C@H](C)NC(=O)[C@@H](NC(=O)[C@@H](N)C(C)C)C(C)C)C(C)C)[C@@H](C)O)C(C)C)[C@@H](C)O)C(=O)N[C@@H](CO)C(=O)N[C@@H](CS)C(=O)N[C@@H](Cc1ccc(O)cc1)C(=O)O` [GK 199] (H-VVAMVNDTVATMISCY-OH), for which the pIC50 under setting [2] is 5.60.

Take `CSCC[C@H](NC(=O)[C@H](Cc1ccc(O)cc1)NC(=O)[C@H](CS)NC(=O)[C@H](C)NC(=O)[C@@H](N)CC(N)=O)C(=O)N[C@@H](CCC(=O)O)C(=O)N[C@@H](CCC(=O)O)C(=O)N[C@@H](CCSC)C(=O)N[C@@H](CCC(N)=O)C(=O)N[C@@H](CC(N)=O)C(=O)N[C@H](C(=O)N[C@@H](CCC(=O)O)C(=O)N[C@@H](CC(C)C)C(=O)N[C@H](C(=O)N[C@@H](CCC(=O)O)C(=O)O)C(C)C)C(C)C` [GK 231-245] (H-NACYMEEMQNVELVE-OH): the pIC50 under setting [1] was 7.52.

`CC(C)C[C@H](NC(=O)[C@H](CC(C)C)NC(=O)[C@H](Cc1ccccc1)NC(=O)[C@H](CCC(=O)O)NC(=O)[C@H](CC(=O)O)NC(=O)[C@@H](N)CC(C)C)C(=O)N[C@@H](CCC(=O)O)C(=O)N[C@@H](Cc1ccc(O)cc1)C(=O)N[C@@H](CC(=O)O)C(=O)N[C@@H](CCCNC(N)=O)C(=O)N[C@@H](CC(C)C)C(=O)N[C@H](C(=O)N[C@@H](CC(=O)O)C(=O)N[C@@H](CCC(=O)O)C(=O)N[C@@H](CO)C(=O)O)C(C)C` [GK 266 Cit] (H-LDEFLLEYD[Cit]LVDES-OH): the pIC50 under setting [3] is 5.02.

As for `CC(C)C[C@H](NC(=O)[C@H](CC(C)C)NC(=O)[C@H](Cc1ccccc1)NC(=O)[C@H](CCC(=O)O)NC(=O)[C@H](CC(=O)O)NC(=O)[C@@H](N)CC(C)C)C(=O)N[C@@H](CCC(=O)O)C(=O)N[C@@H](Cc1ccc(O)cc1)C(=O)N[C@@H](CC(=O)O)C(=O)N[C@@H](CCCNC(=N)N)C(=O)N[C@@H](CC(C)C)C(=O)N[C@H](C(=O)N[C@@H](CC(=O)O)C(=O)N[C@@H](CCC(=O)O)C(=O)N[C@@H](CO)C(=O)O)C(C)C` [GK 266] (H-LDEFLLEYDRLVDES-OH), the pIC50 under setting [2] is 5.25.

On to `CC(C)C[C@H](NC(=O)[C@H](CCCNC(N)=O)NC(=O)[C@H](CC(=O)O)NC(=O)[C@H](Cc1ccc(O)cc1)NC(=O)[C@H](CCC(=O)O)NC(=O)[C@H](CC(C)C)NC(=O)[C@@H](N)CC(C)C)C(=O)N[C@H](C(=O)N[C@@H](CC(=O)O)C(=O)N[C@@H](CCC(=O)O)C(=O)N[C@@H](CO)C(=O)N[C@@H](CO)C(=O)N[C@@H](C)C(=O)N[C@@H](CC(N)=O)C(=O)N1CCC[C@H]1C(=O)O)C(C)C` [GK 270 Cit] (H-LLEYD[Cit]LVDESSANP-OH), for which the pIC50 under setting [3] was 5.07.

As to `CC(C)C[C@H](NC(=O)[C@H](CCCNC(=N)N)NC(=O)[C@H](CC(=O)O)NC(=O)[C@H](Cc1ccc(O)cc1)NC(=O)[C@H](CCC(=O)O)NC(=O)[C@H](CC(C)C)NC(=O)[C@@H](N)CC(C)C)C(=O)N[C@H](C(=O)N[C@@H](CC(=O)O)C(=O)N[C@@H](CCC(=O)O)C(=O)N[C@@H](CO)C(=O)N[C@@H](CO)C(=O)N[C@@H](C)C(=O)N[C@@H](CC(N)=O)C(=O)N1CCC[C@H]1C(=O)O)C(C)C` [GK 270] (H-LLEYDRLVDESSANP-OH), the pIC50 under setting [2] was 5.70.

On to `CSCC[C@H](NC(=O)[C@H](Cc1ccc(O)cc1)NC(=O)[C@H](CCCCN)NC(=O)CNC(=O)CN)C(=O)NCC(=O)N[C@@H](CCC(=O)O)C(=O)N[C@@H](CC(C)C)C(=O)N[C@H](C(=O)N[C@@H](CCCNC(N)=O)C(=O)N[C@@H](CC(C)C)C(=O)N[C@H](C(=O)N[C@@H](CC(C)C)C(=O)N[C@@H](CC(C)C)C(=O)N[C@@H](CCCNC(=N)N)C(=O)O)C(C)C)C(C)C` [GK 294-308] (H-GGKYMGELV[Cit]LVLLR-OH), for which the pIC50 under setting [1] is 5.37.

Take `CC(C)C[C@H](NC(=O)[C@H](CCC(N)=O)NC(=O)[C@H](CCC(=O)O)NC(=O)[C@H](CO)NC(=O)[C@H](C)NC(=O)[C@H](CCC(=O)O)NC(=O)CNC(=O)[C@H](Cc1c[nH]cn1)NC(=O)[C@H](Cc1ccccc1)NC(=O)[C@H](CC(C)C)NC(=O)[C@H](CC(C)C)NC(=O)[C@H](CC(N)=O)NC(=O)[C@H](CCC(=O)O)NC(=O)[C@@H](N)CC(=O)O)C(=O)O` [GK 311-324] (H-DENLLFHGEASEQL-OH; N-terminus and C-terminus assumed): the pIC50 under setting [1] was < 4.30.

For the compound `CC(C)C[C@H](NC(=O)[C@H](CCC(N)=O)NC(=O)[C@H](CCC(=O)O)NC(=O)[C@H](CO)NC(=O)[C@H](C)NC(=O)[C@H](CCC(=O)O)NC(=O)CNC(=O)[C@H](Cc1c[nH]cn1)NC(=O)[C@H](Cc1ccccc1)NC(=O)[C@H](CC(C)C)NC(=O)[C@H](CC(C)C)NC(=O)[C@@H](N)CC(N)=O)C(=O)N[C@@H](CCCNC(N)=O)C(=O)N[C@H](C(=O)N[C@@H](CCCNC(=N)N)C(=O)O)[C@@H](C)O` [GK 313-327] (H-NLLFHGEASEQL[Cit]TR-OH; N-terminus and C-terminus assumed), the pIC50 under setting [1] is < 4.30.

As to `CC(C)[C@H](NC(=O)[C@H](CCC(N)=O)NC(=O)[C@H](CO)NC(=O)[C@@H](NC(=O)[C@H](Cc1ccccc1)NC(=O)[C@H](CCCNC(N)=O)NC(=O)[C@@H](NC(=O)[C@H](CCC(=O)O)NC(=O)[C@H](Cc1ccccc1)NC(=O)[C@H](C)NC(=O)CNC(=O)[C@@H](N)CCCNC(=N)N)[C@@H](C)O)C(C)C)C(=O)N[C@@H](CCC(=O)O)C(=O)N[C@@H](CO)C(=O)N[C@@H](CC(=O)O)C(=O)O` [GK 327-341] (H-RGAFET[Cit]FVSQVESD-OH; N-terminus and C-terminus assumed), the negative-log IC50 (pIC50) under setting [1] was < 4.30.

Turning to `CC(C)[C@H](NC(=O)[C@H](CCC(N)=O)NC(=O)[C@H](CO)NC(=O)[C@@H](NC(=O)[C@H](Cc1ccccc1)NC(=O)[C@H](CCCNC(N)=O)NC(=O)[C@@H](NC(=O)[C@@H](N)CCC(=O)O)[C@@H](C)O)C(C)C)C(=O)N[C@@H](CCC(=O)O)C(=O)N[C@@H](CO)C(=O)N[C@@H](CC(=O)O)C(=O)N[C@H](C(=O)NCC(=O)N[C@@H](CC(=O)O)C(=O)O)[C@@H](C)O` [GK 331-344] (H-ET[Cit]FVSQVESDTGD-OH; N-terminus and C-terminus assumed), the negative-log IC50 (pIC50) under setting [1] is < 4.30.

The values above are taken from publication PMC8986778, “Citrullination of glucokinase is linked to autoimmune diabetes” (Nature Communications, 2022).
